Key:
Type in all cases: biochemical
[1] = target: T1, PI3K β (p110β/p85α) (Homo sapiens, UniProt P42338); experiment: PI 3-Kinase (human) HTRF assay, PI3K β; settings: read-out: PI3K β IC50
T1 construct: purchased Upstate / Millipore Corporation

[2] = target: T2, PI3K δ (Homo sapiens, UniProt O00329); experiment: PI 3-Kinase (human) HTRF assay, PI3K δ; settings: read-out: PI3K δ IC50
T2 construct: purchased Upstate / Millipore Corporation

[3] = target: T3, PI3K α (p110α/p85α) (Homo sapiens, UniProt P42336); experiment: PI 3-Kinase (human) HTRF assay, PI3K α; settings: read-out: PI3K α IC50
T3 construct: purchased Upstate / Millipore Corporation
T3 sequence (P42336 whole entry): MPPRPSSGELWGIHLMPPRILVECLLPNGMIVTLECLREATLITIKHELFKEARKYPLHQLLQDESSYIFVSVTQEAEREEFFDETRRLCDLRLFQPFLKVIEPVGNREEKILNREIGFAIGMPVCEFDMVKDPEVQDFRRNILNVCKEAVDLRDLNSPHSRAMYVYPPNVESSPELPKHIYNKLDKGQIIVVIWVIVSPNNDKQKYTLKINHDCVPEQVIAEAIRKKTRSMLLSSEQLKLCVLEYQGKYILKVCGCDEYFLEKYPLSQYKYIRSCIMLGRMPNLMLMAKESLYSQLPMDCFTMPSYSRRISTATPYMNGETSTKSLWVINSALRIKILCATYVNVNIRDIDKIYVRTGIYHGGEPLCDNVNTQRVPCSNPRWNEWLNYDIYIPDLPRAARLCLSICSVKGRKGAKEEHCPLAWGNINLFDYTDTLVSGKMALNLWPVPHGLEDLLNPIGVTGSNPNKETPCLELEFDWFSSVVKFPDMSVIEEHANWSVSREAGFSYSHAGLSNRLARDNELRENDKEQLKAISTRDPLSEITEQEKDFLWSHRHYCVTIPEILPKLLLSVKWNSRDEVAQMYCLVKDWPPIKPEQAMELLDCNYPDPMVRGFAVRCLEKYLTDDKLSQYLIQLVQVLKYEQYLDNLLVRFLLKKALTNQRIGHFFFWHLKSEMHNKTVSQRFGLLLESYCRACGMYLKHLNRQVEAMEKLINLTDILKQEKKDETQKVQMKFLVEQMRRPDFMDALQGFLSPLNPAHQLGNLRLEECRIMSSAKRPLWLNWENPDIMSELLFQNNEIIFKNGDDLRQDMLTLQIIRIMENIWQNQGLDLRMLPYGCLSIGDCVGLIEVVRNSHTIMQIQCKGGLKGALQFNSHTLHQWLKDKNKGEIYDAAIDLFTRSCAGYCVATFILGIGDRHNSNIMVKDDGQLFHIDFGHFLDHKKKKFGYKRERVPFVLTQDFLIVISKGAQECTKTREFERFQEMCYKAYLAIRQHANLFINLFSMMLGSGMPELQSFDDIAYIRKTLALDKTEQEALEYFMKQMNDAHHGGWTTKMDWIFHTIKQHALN
T3 sequence (P27986 whole entry partner): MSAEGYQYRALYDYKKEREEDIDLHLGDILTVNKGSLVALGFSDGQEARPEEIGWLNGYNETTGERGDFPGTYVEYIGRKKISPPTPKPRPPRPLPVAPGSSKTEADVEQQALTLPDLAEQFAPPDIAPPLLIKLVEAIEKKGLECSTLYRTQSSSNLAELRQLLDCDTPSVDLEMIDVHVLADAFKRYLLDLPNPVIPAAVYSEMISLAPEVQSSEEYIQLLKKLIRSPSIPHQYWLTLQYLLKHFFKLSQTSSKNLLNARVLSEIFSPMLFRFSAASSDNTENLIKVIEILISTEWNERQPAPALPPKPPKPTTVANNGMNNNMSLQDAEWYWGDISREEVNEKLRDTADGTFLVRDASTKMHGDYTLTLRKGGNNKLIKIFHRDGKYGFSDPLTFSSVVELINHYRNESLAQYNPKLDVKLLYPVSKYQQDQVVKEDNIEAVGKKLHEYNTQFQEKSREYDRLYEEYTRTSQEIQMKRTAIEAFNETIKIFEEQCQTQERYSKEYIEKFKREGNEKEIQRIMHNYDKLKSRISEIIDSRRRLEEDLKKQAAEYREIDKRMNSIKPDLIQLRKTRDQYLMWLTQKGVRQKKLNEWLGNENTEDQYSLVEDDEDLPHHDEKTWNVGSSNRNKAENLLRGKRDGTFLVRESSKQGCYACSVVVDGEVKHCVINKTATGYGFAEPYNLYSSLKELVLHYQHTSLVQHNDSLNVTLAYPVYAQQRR

[4] = target: T4, PI3K γ (p110γ) (Homo sapiens, UniProt P48736); experiment: PI 3-Kinase (human) HTRF assay, PI3K γ; settings: read-out: PI3K γ IC50
T4 construct: purchased Upstate / Millipore Corporation
T4 sequence (P48736 whole entry): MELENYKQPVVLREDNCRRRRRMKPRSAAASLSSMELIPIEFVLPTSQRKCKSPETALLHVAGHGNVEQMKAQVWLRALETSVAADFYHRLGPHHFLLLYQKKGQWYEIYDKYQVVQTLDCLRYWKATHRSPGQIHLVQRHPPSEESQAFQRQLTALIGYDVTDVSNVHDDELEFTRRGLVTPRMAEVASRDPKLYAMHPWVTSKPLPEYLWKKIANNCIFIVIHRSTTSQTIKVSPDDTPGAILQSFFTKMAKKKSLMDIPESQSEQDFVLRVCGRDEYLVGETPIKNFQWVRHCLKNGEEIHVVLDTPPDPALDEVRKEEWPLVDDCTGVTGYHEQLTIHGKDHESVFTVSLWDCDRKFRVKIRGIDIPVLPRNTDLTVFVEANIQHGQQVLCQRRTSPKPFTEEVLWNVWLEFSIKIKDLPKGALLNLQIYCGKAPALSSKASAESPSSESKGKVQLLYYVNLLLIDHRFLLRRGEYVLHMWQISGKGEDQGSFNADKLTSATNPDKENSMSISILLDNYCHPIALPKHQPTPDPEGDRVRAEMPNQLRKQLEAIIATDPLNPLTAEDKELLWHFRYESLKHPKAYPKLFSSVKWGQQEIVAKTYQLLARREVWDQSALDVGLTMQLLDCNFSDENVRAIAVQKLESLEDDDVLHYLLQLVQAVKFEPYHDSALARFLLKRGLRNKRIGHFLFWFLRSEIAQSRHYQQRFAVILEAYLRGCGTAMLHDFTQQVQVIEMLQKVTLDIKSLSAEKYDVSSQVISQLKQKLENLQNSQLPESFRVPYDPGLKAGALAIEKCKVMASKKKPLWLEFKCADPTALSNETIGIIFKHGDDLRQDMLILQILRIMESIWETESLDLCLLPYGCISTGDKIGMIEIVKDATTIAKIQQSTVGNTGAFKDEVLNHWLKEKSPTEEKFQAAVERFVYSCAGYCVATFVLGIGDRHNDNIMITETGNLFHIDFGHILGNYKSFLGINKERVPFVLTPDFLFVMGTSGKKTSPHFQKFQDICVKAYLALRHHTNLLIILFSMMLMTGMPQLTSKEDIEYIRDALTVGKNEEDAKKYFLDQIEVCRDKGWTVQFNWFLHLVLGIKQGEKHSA

T1 sequence (P42338 whole entry): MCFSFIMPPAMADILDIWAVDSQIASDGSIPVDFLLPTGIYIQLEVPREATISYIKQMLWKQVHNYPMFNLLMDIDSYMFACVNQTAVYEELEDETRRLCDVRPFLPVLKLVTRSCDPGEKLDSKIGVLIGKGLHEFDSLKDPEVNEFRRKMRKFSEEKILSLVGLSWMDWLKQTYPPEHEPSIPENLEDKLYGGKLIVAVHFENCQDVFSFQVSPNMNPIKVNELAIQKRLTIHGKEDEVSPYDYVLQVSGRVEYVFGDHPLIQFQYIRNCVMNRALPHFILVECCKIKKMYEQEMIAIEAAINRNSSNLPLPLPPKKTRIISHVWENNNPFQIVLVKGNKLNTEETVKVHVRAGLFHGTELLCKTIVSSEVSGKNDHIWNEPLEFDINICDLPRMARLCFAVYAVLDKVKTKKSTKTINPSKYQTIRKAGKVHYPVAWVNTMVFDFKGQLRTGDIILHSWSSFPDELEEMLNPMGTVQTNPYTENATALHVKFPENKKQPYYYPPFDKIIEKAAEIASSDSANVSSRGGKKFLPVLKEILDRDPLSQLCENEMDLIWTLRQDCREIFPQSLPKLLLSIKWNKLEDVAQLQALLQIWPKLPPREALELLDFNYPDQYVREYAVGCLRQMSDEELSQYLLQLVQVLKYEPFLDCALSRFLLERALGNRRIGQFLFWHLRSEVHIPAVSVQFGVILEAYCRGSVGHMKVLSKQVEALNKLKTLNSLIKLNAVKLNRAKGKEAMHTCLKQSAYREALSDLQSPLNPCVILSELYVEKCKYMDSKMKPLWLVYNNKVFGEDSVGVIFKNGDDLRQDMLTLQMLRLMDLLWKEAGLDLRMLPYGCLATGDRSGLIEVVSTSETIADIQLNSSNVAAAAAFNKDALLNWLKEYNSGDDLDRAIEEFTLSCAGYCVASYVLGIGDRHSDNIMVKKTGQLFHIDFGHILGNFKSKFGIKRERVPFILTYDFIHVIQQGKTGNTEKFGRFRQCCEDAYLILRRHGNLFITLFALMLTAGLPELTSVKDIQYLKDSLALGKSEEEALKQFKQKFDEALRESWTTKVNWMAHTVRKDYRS
T1 sequence (P27986 whole entry partner): as the sequence (P27986 whole entry partner) above
T2 sequence (O00329 whole entry): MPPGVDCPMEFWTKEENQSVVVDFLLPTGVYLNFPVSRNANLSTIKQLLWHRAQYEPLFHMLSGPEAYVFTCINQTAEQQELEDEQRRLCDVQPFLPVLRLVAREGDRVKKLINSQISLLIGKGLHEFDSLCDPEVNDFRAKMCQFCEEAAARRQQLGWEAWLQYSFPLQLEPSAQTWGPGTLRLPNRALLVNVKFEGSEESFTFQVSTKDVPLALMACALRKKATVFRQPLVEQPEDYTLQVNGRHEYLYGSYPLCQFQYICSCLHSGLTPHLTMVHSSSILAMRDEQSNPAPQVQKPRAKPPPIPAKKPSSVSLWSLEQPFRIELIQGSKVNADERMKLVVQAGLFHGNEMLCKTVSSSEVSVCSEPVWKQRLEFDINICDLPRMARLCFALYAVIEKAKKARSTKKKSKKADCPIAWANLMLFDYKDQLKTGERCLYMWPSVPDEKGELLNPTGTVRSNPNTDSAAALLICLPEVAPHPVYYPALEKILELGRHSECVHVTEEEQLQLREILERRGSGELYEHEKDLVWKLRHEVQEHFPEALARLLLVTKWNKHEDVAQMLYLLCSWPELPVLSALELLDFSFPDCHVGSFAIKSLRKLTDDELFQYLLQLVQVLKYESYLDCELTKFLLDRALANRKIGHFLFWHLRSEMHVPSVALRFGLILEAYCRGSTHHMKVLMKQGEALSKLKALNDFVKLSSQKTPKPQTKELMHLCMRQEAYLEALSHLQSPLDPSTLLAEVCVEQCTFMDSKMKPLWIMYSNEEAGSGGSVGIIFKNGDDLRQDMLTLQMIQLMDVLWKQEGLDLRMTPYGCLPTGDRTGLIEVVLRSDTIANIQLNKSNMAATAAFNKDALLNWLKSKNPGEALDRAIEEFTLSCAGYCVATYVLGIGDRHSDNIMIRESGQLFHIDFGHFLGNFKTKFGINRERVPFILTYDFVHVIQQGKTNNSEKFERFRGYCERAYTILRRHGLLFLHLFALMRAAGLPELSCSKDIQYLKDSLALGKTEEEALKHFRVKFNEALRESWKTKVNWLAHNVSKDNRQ
T2 sequence (P27986 whole entry partner): as the sequence (P27986 whole entry partner) above

IC50 [1] [µM]	IC50 [2] [µM]	IC50 [3] [µM]	IC50 [4] [µM]	SMILES
< 10	< 0.1	< 0.1	< 0.1	CC(=O)N1CCC(Nc2cnc3ccc(-c4ccc5oc(N)nc5c4)cc3n2)CC1 [Compound 82]
< 10	< 0.1	< 0.1	< 0.1	Nc1nc2cc(-c3ccc4ncc(C(=O)NC5CCOCC5)n4c3)ccc2o1 [Compound 83]
< 0.1	< 1	< 0.1	< 0.1	CC(C)N1CCN(c2cnc3ccc(-c4ccc5oc(N)nc5c4)cc3n2)CC1 [Compound 84]
< 0.1	< 0.1	< 0.1	< 0.1	CC(=O)N1CCN(c2cnc3ccc(-c4ccc5oc(N)nc5c4)cc3n2)CC1 [Compound 85]
< 1	< 0.1	< 0.1	< 0.1	CS(=O)(=O)N1CCC(Nc2ncnc3ccc(-c4ccc5oc(N)nc5c4)cc23)CC1 [Compound 87]
< 0.1	< 10	< 0.1	< 1	Nc1nc2cc(-c3ccc4ncc(N5CCNCC5)nc4c3)ccc2o1 [Compound 88]
< 10	< 0.1	< 0.1	< 0.1	Nc1nc2cc(-c3ccc4ncnc(NC5CCN(C(=O)C6CC6)CC5)c4c3)ccc2o1 [Compound 89]
< 1	< 10	< 0.1	< 1	CS(=O)(=O)CCN1CCN(c2cnc3ccc(-c4ccc5oc(N)nc5c4)cc3n2)CC1 [Compound 90]
> 10	> 10	> 10	> 10	Cc1nc2ccc(-c3ccc4oc(N)nc4c3)cn2c1C(=O)N1CCN(C)CC1 [Compound 91]
> 10	> 10	> 10	> 10	Cc1nc2ccc(-c3ccc4oc(N)nc4c3)cn2c1C(=O)N1CCOCC1 [Compound 92]
< 10	< 0.1	< 0.1	< 0.1	CS(=O)(=O)N1CCC(Nc2cnc3ccc(-c4ccc5oc(N)nc5c4)cc3n2)CC1 [Compound 95]
< 10	< 1	< 0.1	< 0.1	Nc1nc2cc(-c3ccc4ncc(NC5CCOCC5)nc4c3)ccc2o1 [Compound 96]
> 10	> 10	< 10	> 10	Nc1nc2cc(-c3ccc4ncc(C(=O)N5CCOCC5)cc4c3)ccc2o1 [Compound 97]
> 10	> 10	< 0.1	< 0.1	Nc1nc2cc(-c3ccc4ncc(N5CCS(=O)(=O)CC5)nc4c3)ccc2o1 [Compound 98]
< 10	< 1	< 0.1	< 1	Nc1nc2cc(-c3ccc4ncc(N5CCC(O)CC5)nc4c3)ccc2o1 [Compound 99]
< 0.1	< 10	< 0.1	< 1	Nc1nc2cc(-c3ccc4ncc(N5CCN(CCO)CC5)nc4c3)ccc2o1 [Compound 100]
< 1	< 1	< 0.1	< 0.1	CC(C)(C#N)c1ccc(Nc2ncnc3ccc(-c4ccc5oc(N)nc5c4)cc23)cc1 [Compound 102]
> 10	> 10	< 10	< 10	CN1CCN(C(=O)c2cnc3ccc(-c4ccc5oc(N)nc5c4)nn23)CC1 [Compound 104]
< 10	> 10	< 1	< 1	Nc1nc2cc(-c3ccc4ncc(C(=O)N5CCOCC5)n4n3)ccc2o1 [Compound 105]
> 10	> 10	> 10	> 10	Nc1nc2cc(-c3ccc4ncc(S(=O)(=O)N5CCOCC5)n4c3)ccc2o1 [Compound 109]
> 10	> 10	> 10	> 10	CN1CCN(S(=O)(=O)c2cnc3ccc(-c4ccc5oc(N)nc5c4)cn23)CC1 [Compound 110]
< 10	> 10	< 0.1	> 10	Nc1nc2cc(-c3ccc4ncc(C(=O)N5CCNCC5)n4c3)ccc2o1 [Compound 111]

IC50 [1] [µM]	IC50 [2] [µM]	IC50 [3] [µM]	IC50 [4] [µM]	SMILES
> 10	< 10	< 0.1	< 1	CS(=O)(=O)N1CCN(C(=O)c2cnc3ccc(-c4ccc5oc(N)nc5c4)cn23)CC1 [Compound 112]
> 10	> 10	< 0.1	< 1	CC(=O)N1CCN(C(=O)c2cnc3ccc(-c4ccc5oc(N)nc5c4)cn23)CC1 [Compound 113]
> 10	> 10	< 0.1	< 1	Nc1nc2ccc(-c3ccc4ncc(N5CCOCC5)nc4c3)cc2s1 [Compound 114]
< 0.1	> 10	< 0.1	< 10	CN1CCN(c2cnc3ccc(-c4ccc5nc(N)sc5c4)cc3n2)CC1 [Compound 115]
< 1	> 10	< 0.1	< 1	Nc1nc2cc(-c3ccc4ncc(N5CCOCC5)nc4c3)ccc2s1 [Compound 116]
< 1	> 10	< 0.1	< 1	Nc1nc2ccc(-c3ccc4ncc(N5CCOCC5)nc4c3)cc2o1 [Compound 117]
> 10	> 10	> 10	> 10	Nc1nc2cc(-c3cn4c(C(=O)N5CCOCC5)cnc4cn3)ccc2o1 [Compound 122]
> 10	> 10	< 10	> 10	CN1CCN(C(=O)c2cnc3cnc(-c4ccc5oc(N)nc5c4)cn23)CC1 [Compound 123]
< 1	> 10	< 1	< 1	Nc1nc2ccc(-c3ccc4ncc(C(=O)N5CCOCC5)n4c3)cc2o1 [Compound 124]
< 10	> 10	< 1	< 1	Nc1nc2cc(-c3ccc4ncc(C(=O)N5CCOCC5)n4c3)ccc2s1 [Compound 126]
< 0.1	> 10	< 1	< 10	CN1CCN(c2cnc3ccc(-c4ccc5sc(N)nc5c4)cc3n2)CC1 [Compound 127]
> 10	> 10	< 1	< 10	C[C@@H]1CN(c2cnc3ccc(-c4ccc5oc(N)nc5c4)cc3n2)C[C@H](C)O1 [Compound 132]
< 1	> 10	< 1	< 10	CN1CCCN(c2cnc3ccc(-c4ccc5oc(N)nc5c4)cc3n2)CC1 [Compound 136]
< 10	> 10	< 1	> 10	CN1CCCN(C(=O)c2cnc3ccc(-c4ccc5oc(N)nc5c4)cn23)CC1 [Compound 140]
> 10	> 10	< 1	< 10	CCN1CCN(C(=O)c2cnc3ccc(-c4ccc5oc(N)nc5c4)cn23)CC1 [Compound 141]
> 10	> 10	< 10	> 10	CC1CN(C(=O)c2cnc3ccc(-c4ccc5oc(N)nc5c4)cn23)CC(C)N1 (centres unmarked) [Compound 142]
< 10	> 10	< 10	> 10	CN1CCN(C(=O)c2cnc3ccc(-c4ccc5nc(N)sc5c4)cn23)CC1 [Compound 146]
< 10	< 10	< 1	< 10	CC(=O)NC1CCN(C(=O)c2cnc3ccc(-c4ccc5oc(N)nc5c4)cn23)CC1 [Compound 147]
> 10	> 10	< 0.1	< 10	Nc1nc2cc(-c3ccc4ncc(C(=O)N5CCN(CCO)CC5)n4c3)ccc2o1 [Compound 148]
> 10	> 10	< 1	> 10	Nc1nc2cc(-c3ccc4ncc(-c5ccnc(N6CCOCC6)c5)nc4c3)ccc2o1 [Compound 150]
< 0.1	< 10	< 0.1	< 1	CCN1CCN(c2cnc3ccc(-c4ccc5oc(N)nc5c4)cc3n2)CC1 [Compound 152]

SMILES	IC50 [1] [µM]	IC50 [2] [µM]	IC50 [3] [µM]	IC50 [4] [µM]
CN1CCC(Nc2cnc3ccc(-c4ccc5oc(N)nc5c4)cc3n2)CC1 [Compound 81]	< 1	< 0.1	< 0.1	< 1
CS(=O)(=O)N1CCN(c2cnc3ccc(-c4ccc5oc(N)nc5c4)cc3n2)CC1 [Compound 86]	< 1	< 1	< 0.1	< 0.1
CC(C)N1CCC(Nc2ncnc3ccc(-c4ccc5oc(N)nc5c4)cc23)CC1 [Compound 101]	< 10	< 1	< 0.1	< 10
C[C@@H]1CN(C(=O)c2cnc3ccc(-c4ccc5oc(N)nc5c4)cn23)C[C@H](C)O1 [Compound 106]	> 10	> 10	< 10	< 10
Nc1nc2cc(-c3ccc4ncc(-c5cnn(CCO)c5)nc4c3)ccc2o1 [Compound 108]	< 10	> 10	< 0.1	< 0.1
CNC(=O)CN1CCN(c2cnc3ccc(-c4ccc5oc(N)nc5c4)cc3n2)CC1 [Compound 120]	< 1	< 10	< 0.1	> 10
Nc1nc2ccc(-c3ccc4ncc(C(=O)N5CCOCC5)n4c3)cc2s1 [Compound 125]	> 10	< 10	< 1	< 1
